{"source": "patent US20230146795A1", "about": "“ENHANCEMENT OF ANTI-TUMOR ACTIVITY OF SHP2 INHIBITOR PYRIMIDINONE IN COMBINATION WITH NOVEL CANCER MEDICINES IN CANCERS” (TAIHO PHARMACEUTICAL CO., LTD., priority 2020, published 2023)", "key": {"SHP2": {"target": "T1, SHP2 (Homo sapiens, UniProt Q06124)", "T1 sequence (Q06124 1-593)": "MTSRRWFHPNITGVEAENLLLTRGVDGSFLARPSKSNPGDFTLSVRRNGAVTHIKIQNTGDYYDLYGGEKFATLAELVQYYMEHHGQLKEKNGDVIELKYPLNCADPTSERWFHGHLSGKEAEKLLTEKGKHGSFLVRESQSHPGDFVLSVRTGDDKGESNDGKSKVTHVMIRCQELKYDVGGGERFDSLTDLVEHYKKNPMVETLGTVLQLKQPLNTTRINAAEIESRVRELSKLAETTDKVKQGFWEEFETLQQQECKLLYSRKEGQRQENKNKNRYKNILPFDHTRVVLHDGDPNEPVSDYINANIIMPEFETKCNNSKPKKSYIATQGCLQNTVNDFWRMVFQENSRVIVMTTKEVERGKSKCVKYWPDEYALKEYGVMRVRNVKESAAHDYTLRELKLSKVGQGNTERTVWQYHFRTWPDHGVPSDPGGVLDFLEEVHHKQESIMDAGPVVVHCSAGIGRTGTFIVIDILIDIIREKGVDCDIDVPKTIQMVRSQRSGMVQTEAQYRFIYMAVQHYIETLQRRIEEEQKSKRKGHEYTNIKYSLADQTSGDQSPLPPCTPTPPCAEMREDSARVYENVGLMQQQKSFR", "assay": "SHP2 biochemical assay (DiFMUP conversion)", "conditions": "10 pM SHP2, 0.25 μM pIRS1 peptide, 50 μM DiFMUP", "description": "(1) SHP2 Biochemical Assay SHP2 Activity was Monitored by Measuring the Conversion of the Surrogate Substrate 6,8-Difluoromethylumbelliferyl Phosphate (DiEMUP) to the Fluorescent Product, 6,8-Difluoromethylumbelliferone (DiFMU).\nSHP2 was pre-incubated with test compounds and the activating peptide pIRS1 (H2N-LN(pY) IDLDLV-(PEG) 8-LST(pY)ASINFQK-amide) for 30 min, prior to addition of the 6,8-difluoromethylumbelliferyl phosphate (DiEMUP), (Thermo Fisher D6567). Final assay concentrations were 10 pM SHP2, 0.25 μM pIRS1 peptide, 50 μM DiFMUP, 25 mM Bis-Tris propane, pH 7.0, 150 mM NaCl, 0.05% (v/v) Tween-20, 0.5 mM TCEP and 5% (v/v) DMSO. Rates of reaction were then measured over 30 min by monitoring fluorescence on a BMG Pherastar reader at excitation 360 nm/emission 450 nm. IC50 values were calculated in singlicate from the normalized dose-response plots using four parameter logistic curve fit. The Experiment for each compound was carried out in one time or multiple times, and the IC50 values were shown as a single value (for a compound measured in a single experiment) or an average value (for a compound measured in multiple experiments)."}, "[1]": {"system": "NCI-H358, MKN45, NCI-H23, RT 4, MV-4-11, RMG-I", "assay": "Anti-proliferation assay, summary over the cell lines of table 3", "assay_type": "cell-based", "description": "Cell lines were obtained from ATCC or Health Science Research Resources Bank.\n384 well culture plate (781086, Greiner Bio-One International) was used for cell survival rate measurement assay. Each cell lines were collected by ordinary method, then suspended in indicated medium containing 10% fetal bovine serum in table 3. The number of cells seeded per well was set to 500 cells/20 μL. After incubation at 37° C. for 24 hours under 5% CO2, Compound 1 and additional compound having an antitumor effect or a vehicle (DMSO) was added to each well by using D300e Digital Dispenser (Tecan). The concentration of Compound 1 was set to 10 concentrations. The concentration of each anti-cancer reagents set to 8 concentrations including 0 nM. After adding the medicine to the cells, the cells were further incubated at 37° C. for 3 days under 5% CO2. Cell survival rates were calculated by adding 20 μL of CellTiter-Glo(registered trademark) 2. 0 (Promega) solution to each well, incubating the cells at room temperature for 10 minutes, and then measuring the chemiluminescence intensity of each well using a plate reader (ARVO).\nA combination index (CI) value at each combined concentration of the medicines was determined."}, "[2]": {"system": "human colorectal cancer cell line SW837", "assay": "Antitumor effect on SW837 tumor subcutaneously implanted to SCID-Beige mouse", "assay_type": "in vivo", "conditions": "Compound 1 alone, 25 mg/kg/day orally once a day for 28 days; day of assessment", "description": "The day at which the grouping was carried out was defined as Day 0."}, "[3]": {"system": "human pancreatic cancer cell line MIA PaCa-2 (KRAS mutation)", "assay": "Antitumor effect on MIA PaCa-2 tumor subcutaneously implanted to CB17 SCID mouse", "assay_type": "in vivo", "conditions": "for T/C: once a day, Day 18", "description": "MIA PaCa-2 cell line carries KRAS mutation.\nA human pancreatic cancer line, MIA PaCa-2 (available from American Type Culture Collection), suspended in a mixture of PBS and Matrigel was subcutaneously implanted to male CB17 SCID mice at 7-10 weeks of age (Charles River UK) at 5×10^6 cells/100 μl/mouse. Tumors were measured with a pair of digital calipers, and tumor volumes (TV) were calculated by applying the formula for ellipsoid. Mice with TV of 146 to 360 mm^3 were assigned to study groups such that average TV was equal among groups.\nOral administration of Compound 1 or its vehicle, and Compound 9 or its vehicle was started on Day 1. Compound 1 was dissolved in an acidified solution of 0.5% (w/v) hydroxypropyl methylcellulose (Sigma) and administered via oral gavage at 6 or 12 mg/kg/day. Compound 9 was suspended in 20% (v/v) PEG200 (Sigma) and 0.5% (w/v) methylcellulose (Sigma) and administered via oral gavage at 50 mg/kg/day. All treatments were given once a day for 21 consecutive days, except for the combination group receiving 12 mg/kg of Compound 1 and 50 mg/kg of Compound 9, in which the animals were treated for 5 days per week for 3 weeks.\nAntitumor effects were evaluated by comparing the median relative tumor volumes (RTV) between control- and treated groups. RTV was calculated by dividing TV on any test day by TV on Day 1, expressed as a percentage. T/C (%), as a measure of anti-tumor activity, was calculated by dividing median RTV values of each compound-administered group by median RTV of the control group receiving both vehicles."}}, "data": [{"smiles": "Cn1nc2ccc(-c3c[nH]c4nc(N5[C@H]6CC[C@@H]5[C@H](N)C6)n(C)c(=O)c34)c(Cl)c2c1Cl", "note": "[Compound 1, 2-((1R,2R,4S)-2-amino-7-azabicyclo[2.2.1]heptan-7-yl)-5-(3,4-dichloro-2-methyl-2H-indazol-5-yl)-3-methyl-3,7-dihydro-4H-pyrrolo[2,3-d]pyrimidin-4-one]", "values": [{"measurement": "IC50", "setting": "SHP2", "result": 2, "unit": "nM"}, {"measurement": "anti-proliferation activity in combination", "setting": "[1]; with ALK, Her family (EGFR and HER2), BCR-ABL, FLT3, multi-kinase (PDGFR and VEGFR), c-kit inhibitor", "result": "synergistically enhanced"}, {"measurement": "anti-proliferation activity in combination", "setting": "[1]; with BCL2 inhibitor", "result": "synergistically enhanced"}, {"measurement": "anti-proliferation activity in combination", "setting": "[1]; with CDK4/6 inhibitor", "result": "synergistically enhanced"}, {"measurement": "anti-proliferation activity in combination", "setting": "[1]; with HDAC inhibitor", "result": "synergistically enhanced"}, {"measurement": "anti-proliferation activity in combination", "setting": "[1]; with PI3K inhibitor or AKT inhibitor", "result": "synergistically enhanced"}, {"measurement": "anti-proliferation activity in combination", "setting": "[1]; with RAF inhibitor, MEK inhibitor or ERK inhibitor", "result": "synergistically enhanced"}, {"measurement": "anti-proliferation activity in combination", "setting": "[1]; with anthracycline antibiotics", "result": "synergistically enhanced"}, {"measurement": "anti-proliferation activity in combination", "setting": "[1]; with anti-metabolite", "result": "synergistically enhanced"}, {"measurement": "anti-proliferation activity in combination", "setting": "[1]; with microtubule inhibitor", "result": "synergistically enhanced"}, {"measurement": "anti-proliferation activity in combination", "setting": "[1]; with platinum antitumor agent", "result": "synergistically enhanced"}, {"measurement": "anti-proliferation activity in combination", "setting": "[1]; with topoisomerase inhibitor", "result": "synergistically enhanced"}, {"measurement": "T/C (%)", "setting": "[2]", "result": 65.0, "unit": "%"}, {"measurement": "tumor response", "setting": "[3]; Compound 1 alone 6 mg/kg/day", "result": "transient stasis"}, {"measurement": "T/C", "setting": "[3]; Compound 1 alone 6 mg/kg/day oral", "result": 58, "unit": "%"}, {"measurement": "partial regression (tumor shrinkage of 50% or above), mice", "setting": "[3]; Compound 1 alone 12 mg/kg/day", "result": "2 out of 8"}, {"measurement": "tumor response", "setting": "[3]; Compound 1 alone 12 mg/kg/day", "result": "tumor stasis"}, {"measurement": "T/C", "setting": "[3]; Compound 1 alone 12 mg/kg/day oral", "result": 33, "unit": "%"}]}]}
